Reference: patent US7410986B2, “4-6-diphenyl pyridine derivatives as antiinflammatory agents” (Bayer Aktiengesellschaft, priority 2000, dated 2008)
Counter-ions that a name gives are not always drawn. Like-named read-outs stand apart in the source and are kept apart here.

Key:
[1] = system: RANTES production in response to TNF-α from A549 cells; test: RANTES production in response to TNF-α from A549 cells; assay type: cell-based, human; conditions: 100 ng/ml TNF-α, compounds of about 40 to 90% purity, read-out: Cellular activity grade (A549, IC50)
human IKK-β = target: T1, human IKK-β (Homo sapiens, UniProt O14920); test: IKK-β kinase inhibitory assay; assay type: biochemical; conditions: compounds of about 40 to 90% purity, read-out: In vitro activity grade (invitro, IC50)
T1 construct: A cDNA fragment encoding human IKK-β open reading frame was generated by PCR; His; made in house; host or cells: Sf21 insect cells (baculovirus); the GST-IκBα substrate was made in E. coli
T1 sequence (O14920 1-756): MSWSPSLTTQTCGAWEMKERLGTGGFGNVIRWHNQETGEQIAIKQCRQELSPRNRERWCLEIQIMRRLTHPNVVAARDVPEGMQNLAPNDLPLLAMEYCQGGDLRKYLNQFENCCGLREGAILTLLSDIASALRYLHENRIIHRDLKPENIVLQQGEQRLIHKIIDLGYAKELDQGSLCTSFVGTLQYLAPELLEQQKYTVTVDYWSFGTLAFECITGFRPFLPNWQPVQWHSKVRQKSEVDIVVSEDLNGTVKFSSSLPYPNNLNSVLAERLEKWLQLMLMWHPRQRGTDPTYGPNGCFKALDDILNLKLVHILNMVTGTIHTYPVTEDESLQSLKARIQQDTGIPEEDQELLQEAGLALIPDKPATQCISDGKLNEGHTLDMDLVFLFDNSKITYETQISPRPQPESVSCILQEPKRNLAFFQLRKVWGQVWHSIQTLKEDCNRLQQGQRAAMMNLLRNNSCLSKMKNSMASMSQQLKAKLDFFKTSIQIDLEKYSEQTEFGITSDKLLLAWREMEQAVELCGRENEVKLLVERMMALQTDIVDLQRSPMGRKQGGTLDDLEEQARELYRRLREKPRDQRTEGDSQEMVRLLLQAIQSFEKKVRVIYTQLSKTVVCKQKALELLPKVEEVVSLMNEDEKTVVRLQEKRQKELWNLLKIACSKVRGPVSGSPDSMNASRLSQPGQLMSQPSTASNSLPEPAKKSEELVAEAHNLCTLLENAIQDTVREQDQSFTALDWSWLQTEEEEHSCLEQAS
Excerpt: IKK-β Kinase Inhibitory Assay.
• (1) Preparation of IKK-β Kinase Protein. • A cDNA fragment encoding human IKK-β open reading frame was generated by PCR with the use of a pair of primers designed from the published sequence (Woronicz J D et al. (1997) Science 278,866-869). A template was obtained from Quickclone cDNA (Clontech) using Elongase™ Amplification kit (Life Technologies). The DNA fragments generated by PCR were gel-purified and subcloned into pBluescript. The cDNA fragment cloned in pBluescript was inserted into pcDNA3.1/His C KpnI/NotI, and transferred into pVL1393 SmaI/XbaI (Pharmingen) to construct a baculovirus transfer vector. Then the vector, together with the linearized baculovirus (BaculoGold™, Pharmingen) was used to transfect Sf21 cells (Invitrogen, San Diego, Calif.). Generated recombinant baculovirus was cloned and amplified in Sf21 cells, grown in TNM-FH insect cell medium (Life Technologies, Inc.) supplemented with 10% FCS, […] Gentamycin, 0.1% Pluronic F-68 (Life Technologies, Inc.) as suspension culture (200 ml in 1 L Erlenmeyer flask; 27° C.; 130 rpm). Sf21 cells were infected with this amplified virus with a multiplicity of infection of 5 following standard protocols (Crossen R, Gruenwald S (1997) Baculovirus Expression Vector System Instruction Manual, Pharmingen Corporation) and harvested 48 hrs. later. The cells were lysed to obtain the produced chimeric protein of IKK-β kinase fused by histidine (His-tagged IKK-beta). • (2) The Preparation of Purified GST-IκBα Fusion Proteins • An expression vector containing the nucleotide sequence encoding fusion protein of GST with amino acid residues 1 to 54 of IκBα under the control of an IPTG-inducible promoter was constructed. The expression vector was introduced in E. coli and the transformant was cultured and lysed to obtain a GST-IκBα fusion protein. Then the resulting GST-IκBα fusion protein was purified and biotinated for kinase assay. • (3) The Measurement of IKK-β Kinase Activity • The 96-well format kinase assay of IKK-β was performed to test the inhibitory activity of the compounds of the present invention. First, 5 μl of a test compound was put in the presence of 2.5% dimethyl sulfoxide (DMSO) in each well in a U-bottomed 96-well plate (Falcon). For control wells of background (BG) and total phosphorylation (TP), 5 μl of 2.5% DMSO was put. Recombinant IKK-β (final 0.6 μg/ml) and bio-GST-IκBα (1-54) (final 0.2 μM) were diluted in 25 μl of 2×kinase buffer β (40 mM Tris-HCl, pH 7.6, 40 mM MgCl2, 40 mM β-glycerophosphate, 40 mM p-nitrophenyl-phosphate, 2 mM EDTA, 40 mM creatine phosphate, 2 mM DTT, 2 mM Na3VO4, 0.2 mg/ml BSA and 0.8 mM phenylmethylsulfonyl fluoride) and transferred to the 96-well plate. Bio-GST-IκBα (1-54) in 25 μl of 2×kinase buffer β without IKK-β was transferred to BG wells. Then 20 μl of 12.5 μM ATP, 62.5 μCi/ml [γ-^33P] ATP (Amersham Pharmacia Biotech) was added and the resulting mixture was incubated for 2 hrs. at room temperature. The kinase reactions were terminated by the addition of 150 μl of termination buffer (100 mM EDTA, 1 mg/ml BSA, 0.2 mg NaN3). One handred and fifty μl of the sample was transferred to a streptavidin-coated, white MTP (Steffens Biotechniche Analysen GmbH #08114E14. FWD) to capture the biotinylated substrates. After 1 hr. of incubation, non-bound radioactivity was eliminated by washing the wells five times with 300 μl of washing buffer including 0.9% NaCl and 0.1% (w/v) Tween-20 with the use of a MW-96 plate washer (BioTec). The bound radioactivity was determined after the addition of 170 μl MicroScint-PS scintillation cocktail (Packard) using a TopCount scintillation counter. Syk Tyrosine Kinase Inhibitory Assay for Selectivity. • (1) Preparation of Syk Protein • A cDNA fragment encoding human Syk openreading frame was cloned from total RNA of human Burkitt's lymphoma B cell lines, Raji (American Type Culture Collection), with the use of RT-PCR method. […]

Row | Compound | IC50 ([1]; 24 hrs) [nM] | IC50 (human IKK-β) [nM] | IC50 ([1]; Homo sapiens, A549, 24 h) [nM]
1 | N#Cc1c(-c2cccc(NC(=O)C3CCC(=O)O3)c2)cc(-c2ccccc2O)nc1N (stereo not shown) [Example 1-1, N-{3-[2-amino-3-cyano-6-(2-hydroxyphenyl)-4-pyridinyl]phenyl}-5-oxotetrahydro-2-furancarboxamide] | 1000 to 10000 | 500 to 2000 | 
2 | N#Cc1c(-c2cccc(NC(=O)C(O)CCC(=O)O)c2)cc(-c2ccccc2O)nc1N (stereo not shown) [Example 1-2, Sodium 5-({3-[2-amino-3-cyano-6-(2-hydroxyphenyl)-4-pyridinyl]phenyl}amino)-4-hydroxy-5-oxopentanoate] |  | 500 to 2000 | > 10000
3 | N#Cc1c(-c2cccc(NC(=O)C3CCC(=O)O3)c2)cc(-c2ccccc2O)nc1N (stereo not shown) [Example 1-03] | > 10000 | 500 to 2000 | 
4 | COCC(=O)Nc1cccc(-c2cc(-c3ccccc3O)nc(N)c2C#N)c1 [Example 1-04] |  | 500 to 2000 | > 10000
5 | N#Cc1c(-c2cccc(NC(=O)C3CCC(=O)N3)c2)cc(-c2ccccc2O)nc1N (stereo not shown) [Example 1-05] |  | 2000 to 10000 | > 10000
6 | CS(=O)(=O)Nc1cccc(-c2cc(-c3ccccc3O)nc(N)c2C#N)c1 [Example 1-06] |  | 2000 to 10000 | 1000 to 10000
7 | N#Cc1c(-c2cccc(N)c2)cc(-c2ccccc2O)nc1N [Example 1-07] |  | 2000 to 10000 | > 10000
8 | N#Cc1c(-c2cccc(N)c2)cc(-c2ccccc2O)nc1N [Example 1-08] | > 10000 | > 10000 | 
9 | N#Cc1c(-c2cccc(NC(=O)C[C@H](N)C(=O)O)c2)cc(-c2ccccc2O)nc1N [Example 1-09] |  | < 500 | > 10000
10 | N#Cc1c(-c2ccc(NC(=O)C(O)CCC(=O)O)cc2)cc(-c2ccccc2O)nc1N (stereo not shown) [Example 1-10] |  | < 500 | > 10000
11 | Cc1ccc(O)c(-c2cc(-c3cccc(NC(=O)C4CCC(=O)O4)c3)c(C#N)c(N)n2)c1 (stereo not shown) [Example 1-11] |  | > 10000 | > 10000
12 | COc1cccc(O)c1-c1cc(-c2cccc(NC(=O)C3CCC(=O)O3)c2)c(C#N)c(N)n1 (stereo not shown) [Example 1-12] |  | 500 to 2000 | > 10000
13 | COc1cccc(O)c1-c1cc(-c2cccc(NC(=O)C(O)CCC(=O)O)c2)c(C#N)c(N)n1 (stereo not shown) [Example 1-13] |  | 500 to 2000 | > 10000
14 | CC(=O)Nc1cccc(-c2cc(-c3ccccc3O)nc(N)c2C#N)c1 [Example 1-14] |  | > 10000 | > 10000
15 | N#Cc1c(-c2ccc(Cl)c(NC(=O)C(O)CCC(=O)O)c2)cc(-c2ccccc2O)nc1N (stereo not shown) [Example 1-15] |  | < 500 | > 10000
16 | N#Cc1c(-c2cccc(NC(=O)C(O)CCC(=O)O)c2)cc(-c2cc(F)ccc2O)nc1N (stereo not shown) [Example 1-16] |  | 500 to 2000 | > 10000

Row | Compound | IC50 ([1]; 24 hrs) [nM] | IC50 (human IKK-β) [nM] | IC50 ([1]; Homo sapiens, A549, 24 h) [nM]
17 | N#Cc1c(-c2cccc(NC(=O)C(O)CCC(=O)O)c2)cc(-c2cc(Cl)ccc2O)nc1N (stereo not shown) [Example 1-17] |  | 2000 to 10000 | > 10000
18 | COc1ccc(O)c(-c2cc(-c3cccc(NC(=O)C(O)CCC(=O)O)c3)c(C#N)c(N)n2)c1 (stereo not shown) [Example 1-18] |  | 2000 to 10000 | > 10000
19 | N#Cc1c(-c2cccc(NC(=O)CCCC(=O)O)c2)cc(-c2ccccc2O)nc1N [Example 1-19] |  | 500 to 2000 | > 10000
20 | N#Cc1c(-c2cccc(NC(=O)C3CCC(=O)O3)c2)cc(-c2ncccc2O)nc1N (stereo not shown) [Example 1-20] |  | 2000 to 10000 | > 10000
21 | N#Cc1c(-c2cccc(N)c2)cc(-c2ncccc2O)nc1N [Example 1-21] |  | 2000 to 10000 | 1000 to 10000
22 | N#Cc1c(-c2cccc(NC(=O)C(O)CCC(=O)O)c2)cc(-c2ncccc2O)nc1N (stereo not shown) [Example 1-22] |  | 500 to 2000 | > 10000
23 | N#Cc1c(-c2cccc(O)c2)cc(-c2ccccc2O)nc1N [Example 1-23] |  | < 500 | 1000 to 10000
24 | N#Cc1c(-c2cccc(NC(=O)CCN3CCCCC3)c2)cc(-c2ccccc2O)nc1N [Example 2-1, N-{3-[2-amino-3-cyano-6-(2-hydroxyphenyl)-4-pyridinyl]phenyl}-3-(1-piperidinyl)propanamide hydrochloride] |  | 500 to 2000 | 1000 to 10000
25 | N#Cc1c(-c2cccc(NC(=O)C[C@H](N)C(=O)O)c2)cc(-c2ccccc2O)nc1N [Example 2-02] | > 10000 | 500 to 2000 | 
26 | N#Cc1c(-c2cccc(NC(=O)[C@@H](N)CC(=O)O)c2)cc(-c2ccccc2O)nc1N [Example 2-03] |  | 500 to 2000 | > 10000
27 | N#Cc1c(-c2ccc(NC(=O)CCN3CCCCC3)cc2)cc(-c2ccccc2O)nc1N [Example 2-05] |  | 500 to 2000 | > 10000
28 | Nc1cc(-c2cccc(NC(=O)CNCC3CC3)c2)cc(-c2ccccc2O)n1 [Example 4-39] |  | 2000 to 10000 | 
29 | CCNc1ccc(-c2cc(-c3c(O)cccc3OCC3CC3)nc(N)c2CO)cc1O [Example 8-1, 2-[6-amino-4-[4-(ethylamino)-3-hydroxyphenyl]-5-(hydroxymethyl)-2-pyridinyl]-3-(cycloproylmethoxy)phenol hydrochloride] |  | 500 to 2000 | 
30 | CCn1c(=O)oc2cc(-c3cc(-c4c(O)cccc4OCC4CC4)nc4c3COC(=O)N4)ccc21 [Example 8-2, 7-[2-(cyclopropylmethoxy)-6-hydroxyphenyl-5-(3-ethyl-2-oxo-2,3-dihydro-1,3-benzoxazol-6-yl)-1,4-dihydro-2H-pyrido[2,3-d][1,3]oxazin-2-one hydrochloride] |  | 2000 to 10000 | 
31 | CC(=O)Nc1ccc(-c2cc(-c3c(O)cccc3OCC3CC3)nc(N)c2CO)cc1O [Example 8-3, N-{4-[2-amino-6-[2-(cyclopropylmethoxy)-6-hydroxyphenyl]-3-(hydroxymethyl)-4-pyridinyl]-2-hydroxyphenyl}acetamide hydrochloride] |  | < 500 | 
